From patent US10604526B2, “Chemokine receptor modulators and uses thereof” (RAPT THERAPEUTICS, INC., priority 2016, dated 2020) come the findings set out here.

Bounds are passed on as bounds.

This experiment has as its target T1, hCCR4 (Homo sapiens, UniProt P51679).
T1 sequence (P51679 1-360): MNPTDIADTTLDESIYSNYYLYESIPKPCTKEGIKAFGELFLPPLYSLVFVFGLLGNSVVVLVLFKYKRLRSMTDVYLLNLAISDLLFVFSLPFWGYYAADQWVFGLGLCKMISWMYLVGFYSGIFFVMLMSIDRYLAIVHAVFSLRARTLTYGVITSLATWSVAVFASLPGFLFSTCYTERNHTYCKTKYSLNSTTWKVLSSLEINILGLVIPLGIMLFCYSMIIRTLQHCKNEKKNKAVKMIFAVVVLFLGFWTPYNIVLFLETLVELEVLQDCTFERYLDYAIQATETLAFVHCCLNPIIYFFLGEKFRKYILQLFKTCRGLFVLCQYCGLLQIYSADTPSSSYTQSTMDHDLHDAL
Kind of experiment: Calcium flux assay. Type of experiment: cell-based. To be noted: Chem5-hCCR4 cells, CCL22 at EC80 of 1.5 nM, FLIPR Calcium 6 dye; read-out: Potency (IC50). The procedure:
Calcium Flux Assay. Compounds were evaluated in a calcium flux assay substantially performed as follows. Chem5-hCCR4 cells (EMD Millipore, Hayward, Calif.; HTS009C) were cultured under standard conditions and frozen in aliquots of 10×10^6 cells/mL. The day prior to compound testing, a vial was rapidly thawed and pipetted into 20 mL media (DMEM+10% FBS+1% Pen-Strep+1% L-glutamine). Cells were harvested by centrifugation and re-suspended in fresh culture medium. 25 μL of cell suspension was seeded into 384-well plates (Corning, Tewksbury, Mass.; CellBind with black wall/clear bottom). The plates were centrifuged at 300 g for 10 seconds and incubated overnight at 37° C. and 5% CO2. The day of compound testing, media was removed from the plates and 25 μL serum free media was added to each well. Plates were returned to the incubator for 2 h. 25 μL assay buffer (Hank's balanced salt solution+20 mM HEPES pH 7.4) containing FLIPR Calcium 6 dye (Molecular Devices, Sunnyvale, Calif.; # R8191) and probenecid (2.5 mM) was added to each well and incubated at 37° C. and 5% CO2 for 2 h. Compounds in DMSO were added to the plates using an HP D300e digital dispenser, and all wells were normalized to contain 0.25 μL (0.5%) DMSO. Plates were incubated for 1 hour at 37° C. and 5% CO2. CCL22 (Peprotech; Rockyhill, N.J.) was diluted in assay buffer containing 0.1% BSA to 7.5 nM (corresponding to 5×EC80 of 1.5 nM).
Assay plates and working solution of CCL22 were transferred to the FlexStation plate reader (Molecular Devices) at 37° C. for 5 min of equilibration. Fluorescence recordings at 485 excitation/525 emission were performed at 2.5 second intervals. At t=16 seconds, 12.5 μL of CCL22 solution was added to each well and reads continued for 30 seconds at 2.5 second intervals. The minimum fluorescence (Fmin) was calculated by averaging the reads prior to ligand addition and the change in fluorescence (ΔF) was calculated by subtracting the Fmin from the average of the reads following ligand addition. The response ΔF/Fmin was plotted as a function of the compound concentration and the IC50 values were determined by non-linear regression analysis using a 4-parameter fit in either PRISM software (GraphPad; La Jolla, Calif.) or Dotmatics Browser.
In general terms: Calcium flux is commonly read through the fluorescence of an indicator in the cells.
In the case of `Cc1nn([C@H](C)c2ccc(Cl)cc2Cl)c2nc(N3CC(C4CCCN(CCO)C4)C3)cnc12` (mixture of isomers) [Example 40, 2-((S)-3-(1-(1-((R)-1-(2,4-Dichlorophenyl)ethyl)-3-methyl-1H-pyrazolo[3,4-b]pyrazin-6-yl)azetidin-3-yl)piperidin-1-yl)ethan-1-ol and 2-((R)-3-(1-(1-((R)-1-(2,4-dichlorophenyl)ethyl)-3-methyl-1H-pyrazolo[3,4-b]pyrazin-6-yl)azetidin-3-yl)piperidin-1-yl)ethan-1-ol], the IC50 is under 100 nM.
As for `C[C@H](c1ccc(Cl)cc1Cl)n1nc(C(F)(F)F)c2ncc(N3CC(C4CCCN(CCO)C4)C3)nc21` (mixture of isomers) [Example 42, 2-((R)-3-(1-(1-((R)-1-(2,4-Dichlorophenyl)ethyl)-3-(trifluoromethyl)-1H-pyrazolo[3,4-b]pyrazin-6-yl)azetidin-3-yl)piperidin-1-yl)ethan-1-ol and 2-((S)-3-(1-(1-((R)-1-(2,4-dichlorophenyl)ethyl)-3-(trifluoromethyl)-1H-pyrazolo[3,4-b]pyrazin-6-yl)azetidin-3-yl)piperidin-1-yl)ethan-1-ol], the figure is 100 to 500 nM.
The result for `CC(=O)NCCN1CCCC(C2CN(c3cnc4c(C(F)(F)F)nn([C@H](C)c5ccc(Cl)cc5Cl)c4n3)C2)C1` (mixture of isomers) [Example 45, N-(2-((R)-3-(1-(1-((R)-1-(2,4-Dichlorophenyl)ethyl)-3-(trifluoromethyl)-1H-pyrazolo[3,4-b]pyrazin-6-yl)azetidin-3-yl)piperidin-1-yl)ethyl)acetamide and N-(2-((S)-3-(1-(1-((R)-1-(2,4-dichlorophenyl)ethyl)-3-(trifluoromethyl)-1H-pyrazolo[3,4-b]pyrazin-6-yl)azetidin-3-yl)piperidin-1-yl)ethyl)acetamide] reads 100 to 500 nM; that for `C[C@H](c1ccc(Cl)cc1Cl)n1nc(C(F)(F)F)c2ncc(N3CC(C4CCCN(CCNS(C)(=O)=O)C4)C3)nc21` (mixture of isomers) [Example 46, N-(2-((R)-3-(1-(1-((R)-1-(2,4-Dichlorophenyl)ethyl)-3-(trifluoromethyl)-1H-pyrazolo[3,4-b]pyrazin-6-yl)azetidin-3-yl)piperidin-1-yl)ethyl)methanesulfonamide and N-(2-((S)-3-(1-(1-((R)-1-(2,4-dichlorophenyl)ethyl)-3-(trifluoromethyl)-1H-pyrazolo[3,4-b]pyrazin-6-yl)azetidin-3-yl)piperidin-1-yl)ethyl)methanesulfonamide], 100 to 500 nM.
As for `CC(C)S(=O)(=O)NCCN1CCCC(C2CN(c3cnc4c(C(F)(F)F)nn([C@H](C)c5ccc(Cl)cc5Cl)c4n3)C2)C1` (mixture of isomers) [Example 47, N-(2-((R)-3-(1-(1-((R)-1-(2,4-Dichlorophenyl)ethyl)-3-(trifluoromethyl)-1H-pyrazolo[3,4-b]pyrazin-6-yl)azetidin-3-yl)piperidin-1-yl)ethyl)propane-2-sulfonamide and N-(2-((S)-3-(1-(1-((R)-1-(2,4-dichlorophenyl)ethyl)-3-(trifluoromethyl)-1H-pyrazolo[3,4-b]pyrazin-6-yl)azetidin-3-yl)piperidin-1-yl)ethyl)propane-2-sulfonamide], the figure is under 100 nM.
Take `CC(C)C(=O)NCCN1CCCC(C2CN(c3cnc4c(C(F)(F)F)nn([C@H](C)c5ccc(Cl)cc5Cl)c4n3)C2)C1` (mixture of isomers) [Example 48, N-(2-((R)-3-(1-(1-((R)-1-(2,4-Dichlorophenyl)ethyl)-3-(trifluoromethyl)-1H-pyrazolo[3,4-b]pyrazin-6-yl)azetidin-3-yl)piperidin-1-yl)ethyl)isobutyramide and N-(2-((S)-3-(1-(1-((R)-1-(2,4-dichlorophenyl)ethyl)-3-(trifluoromethyl)-1H-pyrazolo[3,4-b]pyrazin-6-yl)azetidin-3-yl)piperidin-1-yl)ethyl)isobutyramide]: the IC50 was under 100 nM.
As for `COC(=O)NCCN1CCCC(C2CN(c3cnc4c(C(F)(F)F)nn([C@H](C)c5ccc(Cl)cc5Cl)c4n3)C2)C1` (mixture of isomers) [Example 49, Methyl (2-((R)-3-(1-(1-((R)-1-(2,4-dichlorophenyl)ethyl)-3-(trifluoromethyl)-1H-pyrazolo[3,4-b]pyrazin-6-yl)azetidin-3-yl)piperidin-1-yl)ethyl)carbamate and methyl (2-((S)-3-(1-(1-((R)-1-(2,4-dichlorophenyl)ethyl)-3-(trifluoromethyl)-1H-pyrazolo[3,4-b]pyrazin-6-yl)azetidin-3-yl)piperidin-1-yl)ethyl)carbamate], the IC50 is under 100 nM.
As for `C[C@H](c1ccc(Cl)cc1Cl)n1nc(C(F)(F)F)c2ncc(N3CC(C4CCCN(CCCS(C)(=O)=O)C4)C3)nc21` (mixture of isomers) [Example 50, 1-((R)-1-(2,4-Dichlorophenyl)ethyl)-6-(3-((R)-1-(3-(methylsulfonyl)propyl)piperidin-3-yl)azetidin-1-yl)-3-(trifluoromethyl)-1H-pyrazolo[3,4-b]pyrazine and 1-((R)-1-(2,4-dichlorophenyl)ethyl)-6-(3-((S)-1-(3-(methylsulfonyl)propyl)piperidin-3-yl)azetidin-1-yl)-3-(trifluoromethyl)-1H-pyrazolo[3,4-b]pyrazine], the figure is under 100 nM.
As for `C[C@H](c1ccc(Cl)cc1Cl)n1nc(C#N)c2ncc(N3CC(C4CCCN(CCCC(C)(C)O)C4)C3)nc21` (mixture of isomers) [Example 56, 1-((R)-1-(2,4-dichlorophenyl)ethyl)-6-(3-((S)-1-(4-hydroxy-4-methylpentyl)piperidin-3-yl)azetidin-1-yl)-1H-pyrazolo[3,4-b]pyrazine-3-carbonitrile and 1-((R)-1-(2,4-dichlorophenyl)ethyl)-6-(3-((R)-1-(4-hydroxy-4-methylpentyl)piperidin-3-yl)azetidin-1-yl)-1H-pyrazolo[3,4-b]pyrazine-3-carbonitrile], the figure is under 100 nM; as for `CNS(=O)(=O)CCN1CCCC(C2CN(c3cnc4c(C#N)nn([C@H](C)c5ccc(Cl)cc5Cl)c4n3)C2)C1` (mixture of isomers) [Example 57, 2-(S)-3-(1-(3-cyano-1-((R)-1-(2,4-dichlorophenyl)ethyl)-1H-pyrazolo[3,4-b]pyrazin-6-yl)azetidin-3-yl)piperidin-1-yl)-N-methylethane-1-sulfonamide and 2-((R)-3-(1-(3-cyano-1-((R)-1-(2,4-dichlorophenyl)ethyl)-1H-pyrazolo[3,4-b]pyrazin-6-yl)azetidin-3-yl)piperidin-1-yl)-N-methylethane-1-sulfonamide], under 100 nM.
For the compound `C[C@H](c1ccc(Cl)cc1Cl)n1nc(C#N)c2ncc(N3CC(C4CCCN(CCS(=O)(=O)N5CCOCC5)C4)C3)nc21` (mixture of isomers) [Example 58, 1-((R)-1-(2,4-dichlorophenyl)ethyl)-6-(3-((S)-1-(2-(morpholinosulfonyl)ethyl)piperidin-3-yl)azetidin-1-yl)-1H-pyrazolo[3,4-b]pyrazine-3-carbonitrile and 1-((R)-1-(2,4-dichlorophenyl)ethyl)-6-(3-((R)-1-(2-(morpholinosulfonyl)ethyl)piperidin-3-yl)azetidin-1-yl)-1H-pyrazolo[3,4-b]pyrazine-3-carbonitrile], the IC50 was 100 to 500 nM.
As to `C[C@H](c1ccc(Cl)cc1Cl)n1nc(C#N)c2ncc(N3CC(C4CCCN(Cc5cc[nH]n5)C4)C3)nc21` (mixture of isomers) [Example 59, 6-(3-((S)-1-((1H-pyrazol-3-yl)methyl)piperidin-3-yl)azetidin-1-yl)-1-((R)-1-(2,4-dichlorophenyl)ethyl)-1H-pyrazolo[3,4-b]pyrazine-3-carbonitrile and 6-(3-((R)-1-((1H-pyrazol-3-yl)methyl)piperidin-3-yl)azetidin-1-yl)-1-((R)-1-(2,4-dichlorophenyl)ethyl)-1H-pyrazolo[3,4-b]pyrazine-3-carbonitrile], the IC50 is under 100 nM.

In general, IC50 refers to the point on the concentration scale where inhibition reaches its midpoint.
